Data reported in ChEMBL document CHEMBL4229400, “Covalent inhibitors of nicotinamide N-methyltransferase (NNMT) provide evidence for target engagement challenges in situ” (Bioorg Med Chem Lett, 2018).
The source made the active and inactive calls. The rule behind the calls is not given here.

Experiments:
[1] = molecular target: T1, Glutathione S-transferase omega-1 (Homo sapiens) (UniProt P78417); experiment: Binding affinity to GSTO1 cysteine residue in human 786-O cell soluble proteomic lysate at 5 uM incubated for 1 hr followed by cell lysis by IA-alkyne probe based isoTOP-ABPP analysis
T1 sequence (whole entry): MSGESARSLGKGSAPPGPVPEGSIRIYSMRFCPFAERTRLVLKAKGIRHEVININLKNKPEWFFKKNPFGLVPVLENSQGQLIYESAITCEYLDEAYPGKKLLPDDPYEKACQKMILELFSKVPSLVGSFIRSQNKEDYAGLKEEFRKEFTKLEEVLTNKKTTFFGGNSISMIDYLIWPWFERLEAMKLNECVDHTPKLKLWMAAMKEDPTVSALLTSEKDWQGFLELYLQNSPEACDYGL

[2] = molecular target: T2, Nicotinamide N-methyltransferase (Homo sapiens, UniProt P40261); experiment: Inhibition of NNMT in human 786-O cell lysate using d4-nicotinamide as substrate preincubated for 1 hr followed by substrate and SAM addition measured after 15 to 30 mins by LC-MS analysis
T2 sequence (P40261 whole entry): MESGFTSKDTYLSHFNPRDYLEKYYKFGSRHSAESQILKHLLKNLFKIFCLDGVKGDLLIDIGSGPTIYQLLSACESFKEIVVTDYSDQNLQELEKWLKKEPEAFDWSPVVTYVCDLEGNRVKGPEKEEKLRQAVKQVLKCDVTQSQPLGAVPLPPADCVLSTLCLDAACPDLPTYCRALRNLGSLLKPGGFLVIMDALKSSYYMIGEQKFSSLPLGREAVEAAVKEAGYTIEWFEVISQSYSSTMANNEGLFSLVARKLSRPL

[3] = molecular target: T3, Aldehyde dehydrogenase 1A1 (Homo sapiens) (UniProt P00352); experiment: Binding affinity to ALDH1A1 cysteine residue in human 786-O cell soluble proteomic lysate at 5 uM incubated for 1 hr followed by cell lysis by IA-alkyne probe based isoTOP-ABPP analysis
T3 sequence (whole entry): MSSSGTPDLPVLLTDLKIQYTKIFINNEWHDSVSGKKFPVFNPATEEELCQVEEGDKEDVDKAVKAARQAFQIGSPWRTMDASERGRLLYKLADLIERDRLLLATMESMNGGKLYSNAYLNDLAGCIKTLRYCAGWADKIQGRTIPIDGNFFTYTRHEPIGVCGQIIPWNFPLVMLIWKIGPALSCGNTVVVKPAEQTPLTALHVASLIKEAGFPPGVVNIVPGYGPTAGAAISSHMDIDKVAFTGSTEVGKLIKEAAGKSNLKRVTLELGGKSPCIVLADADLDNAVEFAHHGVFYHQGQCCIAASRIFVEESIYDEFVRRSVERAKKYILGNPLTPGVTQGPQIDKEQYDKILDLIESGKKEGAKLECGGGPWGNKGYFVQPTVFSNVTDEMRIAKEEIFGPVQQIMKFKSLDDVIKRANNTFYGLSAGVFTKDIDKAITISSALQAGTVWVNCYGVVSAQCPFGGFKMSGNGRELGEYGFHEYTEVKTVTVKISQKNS

[4] = molecular target: T2, Nicotinamide N-methyltransferase; experiment: Inhibition of NNMT in human 786-O cell lysate using d4-nicotinamide as substrate pretreated for 1 hr at 3 mins post 10 uM SAM addition followed by substrate addition measured after 15 to 30 mins by LC-MS analysis
[5] = molecular target: T2, Nicotinamide N-methyltransferase; experiment: Inhibition of SAH-rhodamine binding to NNMT in human 786-O cell soluble proteomic lysate preincubated for 1 hr followed by SAH-rhodamine addition measured after 5 mins by Gel-based ABPP analysis
[6] = molecular target: T4, Heme oxygenase 2 (Homo sapiens) (UniProt P30519); experiment: Binding affinity to HMOX2 cysteine residue in human 786-O cell soluble proteomic lysate at 5 uM incubated for 1 hr followed by cell lysis by IA-alkyne probe based isoTOP-ABPP analysis
T4 sequence (whole entry): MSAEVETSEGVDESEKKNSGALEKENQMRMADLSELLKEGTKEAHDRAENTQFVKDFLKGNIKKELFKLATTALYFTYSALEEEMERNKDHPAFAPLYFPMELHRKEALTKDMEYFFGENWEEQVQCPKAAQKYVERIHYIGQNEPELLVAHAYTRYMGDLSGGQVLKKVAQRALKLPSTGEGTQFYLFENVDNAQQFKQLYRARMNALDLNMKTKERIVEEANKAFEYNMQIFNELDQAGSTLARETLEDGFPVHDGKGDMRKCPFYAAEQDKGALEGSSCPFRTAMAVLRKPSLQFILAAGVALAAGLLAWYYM

[7] = molecular target: T5, 5'-nucleotidase domain-containing protein 2 (Homo sapiens) (UniProt Q9H857); experiment: Binding affinity to NT5DC2 cysteine residue in human 786-O cell soluble proteomic lysate at 5 uM incubated for 1 hr followed by cell lysis by IA-alkyne probe based isoTOP-ABPP analysis
T5 sequence (whole entry): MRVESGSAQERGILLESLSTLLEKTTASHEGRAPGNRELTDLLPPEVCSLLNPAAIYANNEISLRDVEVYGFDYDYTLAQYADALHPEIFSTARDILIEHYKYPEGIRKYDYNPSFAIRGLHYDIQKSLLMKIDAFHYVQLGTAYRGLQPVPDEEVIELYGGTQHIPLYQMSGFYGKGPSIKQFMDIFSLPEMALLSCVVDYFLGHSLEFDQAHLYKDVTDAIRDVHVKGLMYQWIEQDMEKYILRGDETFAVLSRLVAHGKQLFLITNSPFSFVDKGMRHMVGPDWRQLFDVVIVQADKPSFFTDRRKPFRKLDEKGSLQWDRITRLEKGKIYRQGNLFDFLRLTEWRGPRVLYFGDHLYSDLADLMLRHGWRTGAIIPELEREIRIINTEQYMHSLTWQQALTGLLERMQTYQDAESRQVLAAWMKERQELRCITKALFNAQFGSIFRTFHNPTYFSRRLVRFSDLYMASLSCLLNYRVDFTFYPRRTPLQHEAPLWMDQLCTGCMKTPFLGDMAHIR

| SMILES | Activity [1] | IC50 [2] | Activity [3] | IC50 [4] | IC50 [5] | Activity [6] | Activity [7] |
| --- | --- | --- | --- | --- | --- | --- | --- |
| CC(C)CCN(C(=O)CCl)c1cc(C(=O)NCc2cccc([N+](=O)[O-])c2)cc(C(F)(F)F)c1 | Active | 0.18 µM | Active | 4 µM | 0.35 µM | Active | – |
| O=C(Nc1cccnc1Cl)c1cc(N(CCCc2ccccc2)C(=O)CCl)cc(C(F)(F)F)c1 | – | 17 µM | Active | – | 22 µM | Active | Active |
